# Legend:
# Rattus norvegicus [1] = test: Volume of distribution at steady state in rat at 1 mg/kg, iv and at 2 mg/kg, po; settings: in vivo
# [2] = Volume of distribution at steady state in mouse at 4 mg/kg, iv and at 10 mg/kg, po; settings: in vivo
# [3] = biological target: T1, Somatostatin receptor type 3 (Homo sapiens, UniProt P32745)
# Description: Antagonist activity at human somatostatin receptor type 3 assessed as inhibition of cAMP levels
# in vivo [4] = settings: rat, po, 2 mg/kg
# Rattus norvegicus [5] = species: Rattus norvegicus; settings: in vivo, po, 2 mg/kg
# [6] = Clearance in mouse plasma at 4 mg/kg, iv
# [7] = biological target: T1, Somatostatin receptor type 3; remark: listed apart in the source
# Description: Binding affinity to human somatostatin receptor type 3
# [8] = biological target: Voltage-gated inwardly rectifying potassium channel KCNH2 (Homo sapiens, UniProt Q12809); test: Binding affinity to human ERG
# Sequence of Voltage-gated inwardly rectifying potassium channel KCNH2 (Q12809 whole entry): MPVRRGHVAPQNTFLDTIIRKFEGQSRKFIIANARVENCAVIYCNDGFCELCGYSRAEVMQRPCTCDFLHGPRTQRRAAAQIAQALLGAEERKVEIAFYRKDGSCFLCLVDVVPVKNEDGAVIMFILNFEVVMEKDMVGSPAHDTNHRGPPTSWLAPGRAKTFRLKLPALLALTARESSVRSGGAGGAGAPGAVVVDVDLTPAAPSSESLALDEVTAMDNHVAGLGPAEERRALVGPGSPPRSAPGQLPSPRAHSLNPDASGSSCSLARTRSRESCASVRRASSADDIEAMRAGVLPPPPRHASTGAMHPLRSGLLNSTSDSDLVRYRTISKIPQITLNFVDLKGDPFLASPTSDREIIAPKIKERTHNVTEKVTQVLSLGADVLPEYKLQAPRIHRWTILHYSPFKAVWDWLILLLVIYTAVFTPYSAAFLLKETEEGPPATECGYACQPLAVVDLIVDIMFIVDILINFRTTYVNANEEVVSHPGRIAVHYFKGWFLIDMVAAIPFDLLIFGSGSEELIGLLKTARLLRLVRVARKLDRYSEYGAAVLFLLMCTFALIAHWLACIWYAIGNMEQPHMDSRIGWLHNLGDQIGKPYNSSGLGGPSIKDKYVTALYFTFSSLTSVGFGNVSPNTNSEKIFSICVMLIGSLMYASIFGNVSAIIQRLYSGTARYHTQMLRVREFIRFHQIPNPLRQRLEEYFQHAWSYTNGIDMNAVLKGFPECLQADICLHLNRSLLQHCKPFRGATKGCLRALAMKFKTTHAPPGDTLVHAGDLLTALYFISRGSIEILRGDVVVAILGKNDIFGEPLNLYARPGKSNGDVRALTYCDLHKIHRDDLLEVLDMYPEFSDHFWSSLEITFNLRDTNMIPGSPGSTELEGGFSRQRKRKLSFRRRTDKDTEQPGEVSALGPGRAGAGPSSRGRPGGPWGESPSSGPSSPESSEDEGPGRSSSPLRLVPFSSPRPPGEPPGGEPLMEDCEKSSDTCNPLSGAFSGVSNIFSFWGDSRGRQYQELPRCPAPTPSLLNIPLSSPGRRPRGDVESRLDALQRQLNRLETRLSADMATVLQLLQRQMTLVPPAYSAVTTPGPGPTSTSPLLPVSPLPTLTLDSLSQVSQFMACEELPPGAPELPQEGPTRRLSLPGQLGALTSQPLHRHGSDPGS
# Mus musculus = species: Mus musculus; settings: in vivo, po, 10 mg/kg
# Rattus norvegicus [9] = test: Half life in rat at 1 mg/kg, iv; settings: in vivo
# [10] = Half life in mouse at 4 mg/kg, iv; settings: in vivo
# in vivo [11] = settings: mouse, po, 10 mg/kg
# T1 sequence (P32745 whole entry): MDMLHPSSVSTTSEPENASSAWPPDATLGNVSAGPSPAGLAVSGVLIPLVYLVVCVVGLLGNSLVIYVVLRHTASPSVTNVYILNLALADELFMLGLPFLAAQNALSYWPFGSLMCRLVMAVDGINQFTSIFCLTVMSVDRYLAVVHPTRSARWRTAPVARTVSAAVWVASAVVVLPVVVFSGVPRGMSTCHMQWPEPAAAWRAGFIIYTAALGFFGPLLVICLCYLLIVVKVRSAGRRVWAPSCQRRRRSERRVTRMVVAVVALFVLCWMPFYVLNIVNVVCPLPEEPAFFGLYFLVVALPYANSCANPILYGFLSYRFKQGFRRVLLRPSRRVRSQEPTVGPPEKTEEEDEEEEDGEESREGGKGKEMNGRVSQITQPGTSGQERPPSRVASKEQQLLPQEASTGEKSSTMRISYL
smiles,measurement,setting,value
CC1(c2nc(-c3ccccc3)c[nH]2)Cc2c([nH]c3ccccc23)C(C2CCOCC2)N1 (stereo in doubt; 6a),Vdss,Rattus norvegicus [1],13.2 L/kg
same,Vd,[2],4.6 L/kg
same,EC50,[3],17 nM
same,bioavailability,in vivo [4],49%
same,AUC/dose,Rattus norvegicus [5],0.28 µM·h/mg/kg
same,clearance,[6],77 mL/min/kg
same,IC50,[7],23 nM
same,IC50,[8],2180 nM
same,AUC/dose,Mus musculus,0.31 µM·h/mg/kg
same,t1/2,Rattus norvegicus [9],0.96 h
same,half-life,[10],1.3 h
same,bioavailability,in vivo [11],58%

# Reference: ChEMBL document CHEMBL3774320, “SAR exploration at the C-3 position of tetrahydro-β-carboline sstr3 antagonists” (Bioorg Med Chem Lett, 2016)
